Measurements reported in patent US6664231B1, “Anti-fungal peptides” (priority 1993, dated 2003).
Square brackets hold non-standard residues; d marks the D form. Ends that are not written are not given here. Peptide text beside a SMILES is read from it. 1Nal = N[C@@H](Cc1cccc2ccccc12)C(=O)O; d2Nal = N[C@H](Cc1ccc2ccccc2c1)C(=O)O; Tle = CC(C)(C)[C@H](N)C(=O)O; Sar = CNCC(=O)O

system: C. albicans (CA-1, Strain SLU-1); assay: Radial diffusion assay; assay type: cell-based, Candida albicans; details: HPLC-purified peptide; nanomoles required to achieve a net 30 mm^2 zone (log titration curve)
Description: In the radial diffusion assay procedures, the CA-1 cultures and peptide solutions were prepared as in the broth assay procedure described above. Ten mL of molten underlayer agarose comprising 3% Sabouraud Dextrose broth, 1% agarose (Pharmacia, Piscataway, N.J.), 0.02% Tween 20, and 10 mM sodium phosphate at pH 7.4, was added to polystyrene tubes and maintained in a 56° C. water bath until the addition of yeast. Tubes were cooled to approximately 45° C., yeast were added to give a final concentration of 1×10^6 CFU/mL, and the tubes were mixed again by inverting. The contents were poured into level square petri dishes and distributed evenly. […] A series of wells were punched into the hardened agarose using a sterile 3 mm punch attached to a vacuum apparatus.
Peptides to be assayed were 2-fold serially diluted in Dulbecco's PBS (D-PBS) starting from a concentration of approximately 1 mg/mL. Five μL of each dilution were added to each well and the plates were incubated at 37° C. for 3 hours. An overlayer of 10 mL of molten agarose comprising 6% Sabouraud Dextrose broth, 1% agarose, and 10 mM sodium phosphate, pH 7.4, (at approximately 45° C.) was then added and plates were incubated overnight at 37° C. Following this overnight incubation, a dilute Coomassie solution was poured into the plates and allowed to stain for 24 hours.
Clear zones of growth inhibition around each well were measured with calipers. The actual area of growth inhibition (mm^2) was calculated by subtracting the area of the well. Table 1 below sets out the results of the radial diffusion assays for tested peptides in terms of the number of picomoles (pmol) of peptide required to establish a 30 mm^2 area of growth inhibition calculated by PROBIT analysis (e.g., calculated from regression of the linear portion of log-concentration dose-response curve, log pmol/well vs. net area of inhibition).

Row | Compound | Plate Assay (nmol), pure peptide activity [nmol]
1 | CC[C@H](C)[C@H](NC(=O)[C@H](CC(C)C)NC(=O)[C@H](Cc1c[nH]c2ccccc12)NC(=O)[C@@H](N)CCCCN)C(=O)N[C@@H](CCC(N)=O)C(=O)N[C@@H](CC(C)C)C(=O)N[C@@H](Cc1ccccc1)C(=O)N[C@@H](Cc1c[nH]cn1)C(=O)N[C@@H](CCCCN)C(=O)N[C@@H](CCCCN)C(N)=O [Peptide 293] | 0.215
2 | CC[C@H](C)[C@H](NC(=O)[C@H](CC(C)C)NC(=O)[C@@H](N)Cc1c[nH]c2ccccc12)C(=O)N[C@@H](CCC(N)=O)C(=O)N[C@@H](CC(C)C)C(=O)N[C@@H](Cc1ccccc1)C(=O)N[C@@H](Cc1c[nH]cn1)C(=O)N[C@@H](CCCCN)C(N)=O [Peptide 303] | 1.306

same assay, conditions: crude peptide; nanomoles required to achieve a net 30 mm^2 zone (log titration curve)

Row | Compound | Plate Assay (nmol), crude peptide activity [nmol]
3 | H-KVKWLIQLFH-NH2 [Peptide 291] | >5.039
4 | H-SKVKWLIQ-NH2 [Peptide 299] | >8.768
5 | CC[C@H](C)[C@H](NC(=O)[C@H](CC(C)C)NC(=O)[C@H](Cc1c[nH]c2ccccc12)NC(=O)[C@@H](N)CCCCN)C(=O)N[C@@H](CCC(N)=O)C(=O)N[C@@H](CC(C)C)C(=O)N[C@@H](Cc1ccccc1)C(=O)N[C@@H](Cc1c[nH]cn1)C(=O)N[C@@H](CCCCN)C(=O)N[C@@H](CCCCN)C(N)=O [Peptide 293] | 1.156
6 | CC[C@H](C)[C@H](NC(=O)[C@H](CC(C)C)NC(=O)[C@@H](N)Cc1c[nH]c2ccccc12)C(=O)N[C@@H](CCC(N)=O)C(=O)N[C@@H](CC(C)C)C(=O)N[C@@H](Cc1ccccc1)C(=O)N[C@@H](Cc1c[nH]cn1)C(=O)N[C@@H](CCCCN)C(N)=O [Peptide 303] | >4.694
7 | H-VKWLIQLFHK-NH2 [Peptide 292] | >4.063
8 | H-VKWLIQ-NH2 [compound 314] | 13.497
9 | H-SKVKWLIQLFHK-NH2 [Peptide 285] | >3.024

same assay, conditions: pmoles of peptide added to well to achieve a 30 mm^2 zone, PROBIT analysis; crude or purified (P′) peptide

Row | Compound | C. albicans pmol/30 mm^2 zone
10 | H-LIQLFH-NH2 [XMP.317] | b (No detectable activity up to 5 μg/well)
11 | CC[C@H](C)[C@H](NC(=O)[C@H](CC(C)C)NC(=O)[C@H](Cc1cccc2ccccc12)NC(=O)CNC(=O)[C@@H](NC(=O)[C@H](CCCCN)NC(=O)[C@H](CO)NC(=O)[C@@H](N)CCCCN)C(C)C)C(=O)N[C@@H](CCC(N)=O)C(=O)N[C@@H](CC(C)C)C(=O)N[C@@H](Cc1ccccc1)C(=O)N[C@@H](Cc1cccc2ccccc12)C(=O)N[C@@H](CCCCN)C(=O)N[C@@H](CCCCN)C(N)=O [XMP.148] (H-KSKVG[1Nal]LIQLF[1Nal]KK-NH2) | >2805 pmol/30 mm^2 zone
12 | H-KSKVGWLIQLFFKK-NH2 [XMP.94] | >923 pmol/30 mm^2 zone
13 | H-KSKVGWLITLFHKK-NH2 [XMP.106] | 1032 pmol/30 mm^2 zone
14 | H-KSKVGWLIQAFHKK-NH2 [XMP.40] | 253 pmol/30 mm^2 zone
15 | CC[C@H](C)[C@H](NC(=O)[C@H](CC(C)C)NC(=O)[C@H](Cc1c[nH]c2ccccc12)NC(=O)[C@@H](N)CCCCN)C(=O)N[C@@H](CCC(N)=O)C(=O)N[C@@H](CC(C)C)C(=O)N[C@@H](Cc1ccccc1)C(=O)N[C@@H](Cc1c[nH]cn1)C(=O)N[C@@H](CCCCN)C(=O)N[C@@H](CCCCN)C(N)=O [XMP.293] | 1,156 pmol/30 mm^2 zone
16 | Ac-PWLIQLFHKK-OH [XMP.354] | 6,361 pmol/30 mm^2 zone
17 | CC[C@H](C)[C@H](NC(=O)[C@H](CC(C)C)NC(=O)[C@H](Cc1c[nH]c2ccccc12)NC(=O)CNC(=O)[C@@H](NC(=O)[C@H](CCCCN)NC(=O)[C@H](CO)NC(=O)[C@@H](N)CCCCN)C(C)C)C(=O)N[C@@H](CCC(N)=O)C(=O)N[C@@H](Cc1cccc2ccccc12)C(=O)N[C@@H](Cc1ccccc1)C(=O)N[C@@H](Cc1cccc2ccccc12)C(=O)N[C@@H](CCCCN)C(=O)N[C@@H](CCCCN)C(N)=O [XMP.231] (H-KSKVGWLIQ[1Nal]F[1Nal]KK-NH2) | b (No detectable activity up to 5 μg/well)
18 | H-KSKVKWLIKLFFKFKSKVKWLIKLFFKF-NH2 [XMP.101] | >1040 pmol/30 mm^2 zone
19 | H-KSKVGWLIALFHKK-NH2 [XMP.39] | 1792 pmol/30 mm^2 zone
20 | H-SVHVHISKSKVGWLIQLFHKKIESALRNK-NH2 [XMP.12] | >2099 pmol/30 mm^2 zone
21 | CC[C@H](C)[C@H](NC(=O)[C@H](CC(C)C)NC(=O)CN(C)C(=O)CNC(=O)[C@@H](NC(=O)[C@H](CCCCN)NC(=O)[C@H](CO)NC(=O)[C@@H](N)CCCCN)C(C)C)C(=O)N[C@@H](CCC(N)=O)C(=O)N[C@@H](CC(C)C)C(=O)N[C@@H](Cc1ccccc1)C(=O)N[C@@H](Cc1c[nH]cn1)C(=O)N[C@@H](CCCCN)C(=O)N[C@@H](CCCCN)C(N)=O [XMP.259] (H-KSKVG[Sar]LIQLFHKK-NH2) | 2,117 pmol/30 mm^2 zone
22 | CC[C@H](C)[C@H](NC(=O)[C@H](CC(C)C)NC(=O)[C@@H](Cc1ccc2ccccc2c1)NC(=O)CNC(=O)[C@@H](NC(=O)[C@H](CCCCN)NC(=O)[C@H](CO)NC(=O)[C@@H](N)CCCCN)C(C)C)C(=O)N[C@@H](CCC(N)=O)C(=O)N[C@@H](CC(C)C)C(=O)N[C@@H](Cc1c[nH]c2ccccc12)C(=O)N[C@@H](Cc1c[nH]cn1)C(=O)N[C@@H](CCCCN)C(=O)N[C@@H](CCCCN)C(N)=O [XMP.243] (H-KSKVG[d2Nal]LIQLWHKK-NH2) | 716 pmol/30 mm^2 zone
23 | H-WLIQL-NH2 [XMP.320] | >4,055 pmol/30 mm^2 zone
24 | H-KSAVGWLIQLFHKK-NH2 [XMP.33] | 603 pmol/30 mm^2 zone
25 | H-KSKVKWLIKLFHKK-NH2 [XMP.100] | 462 pmol/30 mm^2 zone
26 | CC[C@H](C)[C@H](NC(=O)[C@H](CC(C)C)NC(=O)[C@@H](NC(=O)CNC(=O)[C@@H](NC(=O)[C@H](CCCCN)NC(=O)[C@H](CO)NC(=O)[C@@H](N)CCCCN)C(C)C)C(C)(C)C)C(=O)N[C@@H](CCC(N)=O)C(=O)N[C@@H](CC(C)C)C(=O)N[C@@H](Cc1ccccc1)C(=O)N[C@@H](Cc1c[nH]cn1)C(=O)N[C@@H](CCCCN)C(=O)N[C@@H](CCCCN)C(N)=O [XMP.258] (H-KSKVG[Tle]LIQLFHKK-NH2) | 880 pmol/30 mm^2 zone
27 | H-KWLIQL-NH2 [XMP.315] | >5,069 pmol/30 mm^2 zone
28 | H-KSKVGWLIFLFHKKKSKVGWLIQLFHKK-NH2 [XMP.273] | >2,120 pmol/30 mm^2 zone
29 | XMP.383: K - K - L - L - L - Q - L - K - K (SEQ ID NO:214) (KKLLLQLKK) | 473 pmol/30 mm^2 zone
30 | XMP.392: 150-161, P @ 152 (G) (SEQ ID NO:223) (KVPWLIQLFHKK) | 569 pmol/30 mm^2 zone
31 | CC[C@H](C)[C@H](NC(=O)[C@H](CC(C)C)NC(=O)[C@H](Cc1c[nH]c2ccccc12)NC(=O)CNC(=O)[C@@H](NC(=O)[C@H](CCCCN)NC(=O)[C@H](CO)NC(=O)[C@@H](N)CCCCN)C(C)C)C(=O)N[C@@H](CCC(N)=O)C(=O)N[C@@H](CC(C)C)C(=O)N[C@@H](Cc1cccc2ccccc12)C(=O)N[C@@H](Cc1c[nH]cn1)C(=O)N[C@@H](CCCCN)C(=O)N[C@@H](CCCCN)C(N)=O [XMP.109] (H-KSKVGWLIQL[1Nal]HKK-NH2) | >2839 pmol/30 mm^2 zone
32 | CC[C@H](C)[C@H](NC(=O)[C@H](CC(C)C)NC(=O)[C@H](Cc1c[nH]c2ccccc12)NC(=O)[C@@H](N)CCCCN)C(=O)N[C@@H](CCC(N)=O)C(=O)N[C@@H](CC(C)C)C(=O)N[C@@H](CCCCN)C(N)=O [XMP.323] | >4,627 pmol/30 mm^2 zone
33 | XMP.359: CD - 153-161 (SEQ ID NO:190) ([dC]WLIQLFHKK) | b (No detectable activity up to 5 μg/well)
34 | H-RRWLIQLRR-NH2 [XMP.336] | >7,332 pmol/30 mm^2 zone
35 | H-IQLFHKK-NH2 [XMP.311] | b (No detectable activity up to 5 μg/well)
36 | H-WLIQLKK-NH2 [XMP.322] | 3,488 pmol/30 mm^2 zone
37 | XMP.408: L - K - K - K - W - A - I - Q (cyclized head to tail) (SEQ ID NO:239) (LKKKWAIQ; head-to-tail cyclized) | b (No detectable activity up to 5 μg/well)
38 | CC[C@H](C)[C@H](NC(=O)[C@H](CC(C)C)NC(=O)[C@H](Cc1c[nH]c2ccccc12)NC(=O)CNC(=O)[C@@H](NC(=O)[C@H](CCCCN)NC(=O)[C@H](CO)NC(=O)[C@@H](N)CCCCN)C(C)C)C(=O)N[C@@H](CCC(N)=O)C(=O)N[C@@H](Cc1cccc2ccccc12)C(=O)N[C@@H](Cc1ccccc1)C(=O)N[C@@H](Cc1c[nH]cn1)C(=O)N[C@@H](CCCCN)C(=O)N[C@@H](Cc1cccc2ccccc12)C(N)=O [XMP.227] (H-KSKVGWLIQ[1Nal]FHK[1Nal]-NH2) | >2,365 pmol/30 mm^2 zone
39 | H-SKVKWL-NH2 [XMP.312] | >11,120 pmol/30 mm^2 zone

same assay, conditions: pmoles of peptide added to well to achieve a 30 mm^2 zone, PROBIT analysis; crude or purified (P′) peptide; listed as XMP.293P′

Row | Compound | C. albicans pmol/30 mm^2 zone [pmol/30 mm^2 zone]
40 | CC[C@H](C)[C@H](NC(=O)[C@H](CC(C)C)NC(=O)[C@H](Cc1c[nH]c2ccccc12)NC(=O)[C@@H](N)CCCCN)C(=O)N[C@@H](CCC(N)=O)C(=O)N[C@@H](CC(C)C)C(=O)N[C@@H](Cc1ccccc1)C(=O)N[C@@H](Cc1c[nH]cn1)C(=O)N[C@@H](CCCCN)C(=O)N[C@@H](CCCCN)C(N)=O [XMP.293] | 215

same assay, conditions: pmoles of peptide added to well to achieve a 30 mm^2 zone, PROBIT analysis; crude or purified (P′) peptide; listed as XMP.315P′

Row | Compound | C. albicans pmol/30 mm^2 zone
41 | H-KWLIQL-NH2 [XMP.315] | >12,853 pmol/30 mm^2 zone

same assay, conditions: pmoles of peptide added to well to achieve a 30 mm^2 zone, PROBIT analysis; crude or purified (P′) peptide; listed as XMP.336P′

Row | Compound | C. albicans pmol/30 mm^2 zone
42 | H-RRWLIQLRR-NH2 [XMP.336] | h (inactive to 5,268 pmol)
